Experimental data taken from PMC10122081 (European Journal of Drug Metabolism and Pharmacokinetics, 2023).
Where “and” joins values, the source holds several entries; their conditions need not be identical. Equal entries are not always repeated.

Columns and labels:
CYP2C9 = CYP2C9 (Homo sapiens, UniProt P11712); experiment: CYP phenotyping; settings: CYP2C9 bactosomes, 1 µM DMT fumarate
Blood:plasma ratio = type: in vitro ADME; settings: human, fresh whole blood and plasma
CYP3A4 = CYP3A4 (Homo sapiens, UniProt P08684); experiment: CYP phenotyping; settings: CYP3A4 bactosomes, 1 µM DMT fumarate
Sequence of CYP3A4 (P08684 whole entry): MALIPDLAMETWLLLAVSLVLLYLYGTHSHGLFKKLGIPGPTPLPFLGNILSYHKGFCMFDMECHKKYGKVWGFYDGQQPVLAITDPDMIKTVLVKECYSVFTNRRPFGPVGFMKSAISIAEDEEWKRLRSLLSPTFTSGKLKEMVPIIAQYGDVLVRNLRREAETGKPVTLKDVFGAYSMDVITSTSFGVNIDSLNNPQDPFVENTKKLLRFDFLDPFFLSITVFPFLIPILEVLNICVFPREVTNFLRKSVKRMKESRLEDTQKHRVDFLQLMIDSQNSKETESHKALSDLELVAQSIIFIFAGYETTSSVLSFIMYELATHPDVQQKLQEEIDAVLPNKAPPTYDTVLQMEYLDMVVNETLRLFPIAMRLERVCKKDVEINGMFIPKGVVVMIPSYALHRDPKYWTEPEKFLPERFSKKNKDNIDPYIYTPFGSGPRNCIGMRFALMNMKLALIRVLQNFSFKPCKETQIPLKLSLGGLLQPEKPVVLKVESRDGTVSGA

MAO-A = experiment: Metabolic stability in human liver mitochondrial fraction; type: in vitro ADME; settings: both, liver mitochondrial fractions, with clorgyline 100 nM
[1] = bolus IV administration, healthy volunteers; cited from earlier work
CYP2B6 = target: T1, CYP2B6 (Homo sapiens, UniProt P20813); experiment: CYP phenotyping; settings: CYP2B6 bactosomes, 1 µM DMT fumarate
T1 sequence (P20813 1-491): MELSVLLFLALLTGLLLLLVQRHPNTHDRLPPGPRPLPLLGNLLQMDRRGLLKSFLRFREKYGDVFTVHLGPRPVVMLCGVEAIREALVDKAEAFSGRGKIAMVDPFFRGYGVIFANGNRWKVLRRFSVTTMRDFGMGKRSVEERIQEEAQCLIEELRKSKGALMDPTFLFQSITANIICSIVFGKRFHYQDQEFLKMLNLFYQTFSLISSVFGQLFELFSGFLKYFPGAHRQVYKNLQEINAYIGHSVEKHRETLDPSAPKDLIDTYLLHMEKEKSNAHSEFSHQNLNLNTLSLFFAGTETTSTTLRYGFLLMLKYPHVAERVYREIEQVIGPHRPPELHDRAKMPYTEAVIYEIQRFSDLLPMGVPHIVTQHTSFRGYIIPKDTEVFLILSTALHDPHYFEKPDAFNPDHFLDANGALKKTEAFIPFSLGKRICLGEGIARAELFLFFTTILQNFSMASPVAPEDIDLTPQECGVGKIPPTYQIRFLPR

CYP2D6 = CYP2D6 (Homo sapiens, UniProt P10635); experiment: CYP phenotyping; settings: CYP2D6 bactosomes, 1 µM DMT fumarate
Sequence of CYP2D6 (P10635 whole entry): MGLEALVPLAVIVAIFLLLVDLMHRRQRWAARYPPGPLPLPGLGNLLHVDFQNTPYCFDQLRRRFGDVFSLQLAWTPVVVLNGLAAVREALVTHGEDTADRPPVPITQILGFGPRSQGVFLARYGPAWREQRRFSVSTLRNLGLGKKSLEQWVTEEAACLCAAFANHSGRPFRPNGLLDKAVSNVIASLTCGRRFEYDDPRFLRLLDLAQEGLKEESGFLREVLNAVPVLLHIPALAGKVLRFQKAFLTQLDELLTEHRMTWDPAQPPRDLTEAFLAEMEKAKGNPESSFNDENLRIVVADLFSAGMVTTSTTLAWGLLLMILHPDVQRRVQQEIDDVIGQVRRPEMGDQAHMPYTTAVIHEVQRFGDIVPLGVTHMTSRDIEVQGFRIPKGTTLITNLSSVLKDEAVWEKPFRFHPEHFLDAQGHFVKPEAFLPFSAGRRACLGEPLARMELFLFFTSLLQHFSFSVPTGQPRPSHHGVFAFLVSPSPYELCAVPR

CYP2C19 = CYP2C19 (Homo sapiens, UniProt P33261); experiment: CYP phenotyping; settings: CYP2C19 bactosomes, 1 µM DMT fumarate
Sequence of CYP2C19 (P33261 whole entry): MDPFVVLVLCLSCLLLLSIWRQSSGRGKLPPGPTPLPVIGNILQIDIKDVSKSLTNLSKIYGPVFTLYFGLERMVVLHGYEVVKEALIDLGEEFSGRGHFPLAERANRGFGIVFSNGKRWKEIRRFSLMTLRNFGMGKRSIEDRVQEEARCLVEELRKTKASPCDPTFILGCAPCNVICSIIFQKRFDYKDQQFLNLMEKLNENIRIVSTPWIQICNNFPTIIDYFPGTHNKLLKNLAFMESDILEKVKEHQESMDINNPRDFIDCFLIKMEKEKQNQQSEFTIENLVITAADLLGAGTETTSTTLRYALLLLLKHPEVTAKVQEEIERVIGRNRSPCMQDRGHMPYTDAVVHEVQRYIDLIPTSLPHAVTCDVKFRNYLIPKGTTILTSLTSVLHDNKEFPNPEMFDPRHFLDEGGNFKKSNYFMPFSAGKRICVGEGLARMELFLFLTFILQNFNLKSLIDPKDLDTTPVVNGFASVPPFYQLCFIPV

physchem = type: physicochemical; settings: pH 7.4
Plasma protein binding = settings: plasma protein binding result
CYP1A2 = target: T2, CYP1A2 (Homo sapiens, UniProt P05177); experiment: CYP phenotyping; settings: CYP1A2 bactosomes, 1 µM DMT fumarate
T2 sequence (P05177 1-516): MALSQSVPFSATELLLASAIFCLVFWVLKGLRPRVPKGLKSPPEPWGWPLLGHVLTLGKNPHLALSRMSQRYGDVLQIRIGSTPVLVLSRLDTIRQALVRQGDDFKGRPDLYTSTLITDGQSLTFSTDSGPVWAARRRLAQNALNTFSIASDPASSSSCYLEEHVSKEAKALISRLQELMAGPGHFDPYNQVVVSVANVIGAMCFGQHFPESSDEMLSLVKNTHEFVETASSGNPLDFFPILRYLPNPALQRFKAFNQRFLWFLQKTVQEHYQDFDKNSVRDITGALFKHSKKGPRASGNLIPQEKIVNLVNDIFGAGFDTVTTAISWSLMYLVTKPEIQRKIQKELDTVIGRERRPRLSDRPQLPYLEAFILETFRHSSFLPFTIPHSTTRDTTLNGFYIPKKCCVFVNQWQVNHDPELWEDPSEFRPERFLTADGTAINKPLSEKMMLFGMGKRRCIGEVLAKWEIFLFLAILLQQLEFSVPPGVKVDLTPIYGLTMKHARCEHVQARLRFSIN

CYP2C8 = target: T3, CYP2C8 (Homo sapiens, UniProt P10632); experiment: CYP phenotyping; settings: CYP2C8 bactosomes, 1 µM DMT fumarate
T3 sequence (P10632 1-490): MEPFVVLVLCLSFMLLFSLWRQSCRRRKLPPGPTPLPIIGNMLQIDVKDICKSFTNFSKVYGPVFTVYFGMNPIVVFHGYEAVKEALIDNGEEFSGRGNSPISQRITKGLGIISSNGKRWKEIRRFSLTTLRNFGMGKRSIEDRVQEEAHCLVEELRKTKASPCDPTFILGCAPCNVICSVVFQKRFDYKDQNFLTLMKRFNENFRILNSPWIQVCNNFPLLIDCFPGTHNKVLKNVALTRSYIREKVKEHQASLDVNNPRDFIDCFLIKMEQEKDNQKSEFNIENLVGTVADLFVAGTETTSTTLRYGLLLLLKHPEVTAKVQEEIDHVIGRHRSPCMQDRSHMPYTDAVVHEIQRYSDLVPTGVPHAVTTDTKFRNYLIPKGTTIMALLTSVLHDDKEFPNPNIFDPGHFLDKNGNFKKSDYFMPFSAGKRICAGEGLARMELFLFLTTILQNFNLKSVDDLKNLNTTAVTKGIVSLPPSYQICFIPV

CYP3A5 = CYP3A5 (Homo sapiens, UniProt P20815); experiment: CYP phenotyping; settings: CYP3A5 bactosomes, 1 µM DMT fumarate
Sequence of CYP3A5 (P20815 whole entry): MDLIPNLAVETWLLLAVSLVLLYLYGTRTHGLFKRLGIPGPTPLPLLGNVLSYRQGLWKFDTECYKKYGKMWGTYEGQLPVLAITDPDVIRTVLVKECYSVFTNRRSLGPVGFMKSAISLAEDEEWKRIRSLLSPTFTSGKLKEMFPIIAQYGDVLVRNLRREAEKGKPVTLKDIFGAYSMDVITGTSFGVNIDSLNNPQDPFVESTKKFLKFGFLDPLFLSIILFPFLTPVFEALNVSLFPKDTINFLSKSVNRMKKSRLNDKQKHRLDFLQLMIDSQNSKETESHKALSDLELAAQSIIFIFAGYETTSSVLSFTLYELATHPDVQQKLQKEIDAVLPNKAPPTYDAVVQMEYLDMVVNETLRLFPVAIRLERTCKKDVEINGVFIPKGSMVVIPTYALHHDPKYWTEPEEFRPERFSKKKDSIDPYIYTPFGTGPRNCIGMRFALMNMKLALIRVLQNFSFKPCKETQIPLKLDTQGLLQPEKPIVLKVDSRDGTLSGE

healthy subjects = experiment: Phase I clinical safety and tolerability; type: in vivo, human; settings: all four doses, 9–21.5 mg IV
[2] = type: in vivo, human

Sequence of CYP2C9 (P11712 whole entry): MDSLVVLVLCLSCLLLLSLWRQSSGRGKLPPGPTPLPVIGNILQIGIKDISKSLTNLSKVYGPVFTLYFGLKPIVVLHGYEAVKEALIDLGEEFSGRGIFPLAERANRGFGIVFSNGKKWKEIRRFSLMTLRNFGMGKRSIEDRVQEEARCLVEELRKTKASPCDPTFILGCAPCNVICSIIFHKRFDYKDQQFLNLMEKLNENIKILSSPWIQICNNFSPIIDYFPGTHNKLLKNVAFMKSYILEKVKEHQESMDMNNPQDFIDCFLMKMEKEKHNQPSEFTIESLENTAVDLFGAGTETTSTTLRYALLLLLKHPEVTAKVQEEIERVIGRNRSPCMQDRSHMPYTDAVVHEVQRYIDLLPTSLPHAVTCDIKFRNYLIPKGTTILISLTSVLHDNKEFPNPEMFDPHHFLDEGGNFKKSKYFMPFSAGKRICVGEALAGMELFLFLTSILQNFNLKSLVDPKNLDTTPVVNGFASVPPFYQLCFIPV

With `CN(C)CCc1c[nH]c2ccccc12` [DMT, N,N-dimethyltryptamine] the “Intrinsic clearance (no turnover detected)” value (CYP2C9) was < 29 µl/min/nmol CYP, the blood plasma ratio at 30 min, 1 µM (Blood:plasma ratio) was 1.53 and the “Intrinsic clearance (no turnover detected)” value (CYP3A4) was < 29 µl/min/nmol CYP. The microsomal CLint at 3.1 µM (MAO-A) was < 3.9 µL/min/mg, the “Time to peak blood concentrations” value [1] was “approximately 2 min” and the “Intrinsic clearance (no turnover detected)” value (CYP2B6) was < 29 µl/min/nmol CYP. The Intrinsic clearance (CYP2D6) was 801 µl/min/nmol CYP, the Intrinsic clearance (CYP2C19) was 37 µl/min/nmol CYP and the logD (physchem) was 0.15. For the same molecule, the “Unbound in human plasma” value (Plasma protein binding) was > 65% and 67.7%, the “Intrinsic clearance (no turnover detected)” value (CYP1A2) was < 29 µl/min/nmol CYP and the “Intrinsic clearance (no turnover detected)” value (CYP2C8) was < 29 µl/min/nmol CYP. For the same molecule, the “Intrinsic clearance (no turnover detected)” value (CYP3A5) was < 29 µl/min/nmol CYP, the Safety and tolerability (healthy subjects) was “safe and well tolerated” and the Serious adverse events (healthy subjects) was “no serious AEs”. The “Mean measured concentrations of DMT at the 120 min and 240 min time points” value ([2]; all cohorts) was < 0.1 ng/mL, the concentration at 5 min ([2]; human, plasma, intravenous, 6 mg, Individual C5min, following a 6 mg dose over 5 min, across all dose cohorts) was 3.32 to 43 ng/mL and the half-life ([2]; human, plasma, iv, Mean elimination half-life (plasma), all doses, 9–21.5 mg IV 10-min infusion) was 10 to 12 min.
